Test results as given in PMC10391610, “Survivin prevents the polycomb repressor complex 2 from methylating histone 3 lysine 27” (iScience, 2023).

What was measured:
[1] = test system: H3K27me3 / H3K27ac peaks in CD4+ T cells; experiment: ChIP-seq of H3K27me3 and H3K27ac after YM155 treatment; format: cell-based, human
Experimental: (§1) Human peripheral blood mononuclear cells were isolated from venous peripheral blood by density gradient separation on Lymphoprep (Axis-Shield PoC As, Dundee, Scotland). CD4^+ cells were isolated by positive selection (Invitrogen, 11331D), and cultured (1.25×10^6 cells/ml) in wells coated with anti-CD3 antibody (0.5 mg/ml; OKT3, Sigma-Aldrich, Saint Luis, Missouri, USA), in RPMI medium supplemented with 50 μM β-mercaptoethanol (Gibco, Waltham, Massachusetts, USA), Glutamax 2 mM (Gibco), Gentamicin 50 μg/ml (Sanofi-Aventis, Paris, France) and 10% fetal bovine serum (Sigma-Aldrich) at 37°C in a humidified 5% CO2 atmosphere. Cells were treated with survivin inhibitors serpantronium bromide, YM155[22] (YM155, Selleck Chemicals, Houston, TX), as indicated. The cells were stimulated with recombinant IFNg (50 ng/ml; Peprotech, Cranbury, NJ, USA) during the last 2 h and harversted for RNA-seq. Supernatants were used to measure cytokine levels.
For ChIP-seq analysis, CD4^+ cells isolated from 12 women were stimulated with concanavalin A (ConA, 0.625 μg/ml, Sigma-Aldrich), and lipopolysaccharide (LPS) (5 μg/ml, Sigma-Aldrich) for 72 h and pooled in 4 independent samples for DNA purification. After shearing and pre-clearing of chromatin, 1% of the sample was saved as an input. The pre-cleared chromatin was incubated with 2 μg anti-Survivin (10811, Santa Cruz Biotechnology). For ChIPseq targeting histone modifications CD4^+ cells from 3 healthy women were stimulated with concanavalin A and LPS and treated with sepantronium bromide, YM155, 0 or 10 ng/ml, for 24 h. The chromatin was pre-cleared on the beads coated with Sepharose A and incubated with anti-H3K27ac (C15410196, Diagenode), or anti-H3K27me3 (C15410195, Diagenode). The cells were cross-linked and lysed with the EpiTect ChIP OneDay kit (Qiagen), as recommended by the manufacturer. After sonication to shear the chromatin, cellular debris was removed by pelleting. After pre-clearing, 1% of the sample was saved as an input fraction and used as background for nonspecific chromatin binding. Pre-cleared chromatin was incubated with 2 μg of anti-survivin (10811, Santa Cruz Biotechnology, Santa Cruz, CA, USA). The immune complexes were washed, the cross-links were reversed, and the DNA was purified with the EpiTect ChIP OneDay kit (Qiagen) as recommended by the manufacturer. The quality of purified DNA was assessed with TapeStation (Agilent, Santa Clara, CA, USA). DNA libraries were prepared with ThruPLEX (Rubicon) and sequenced with a Hiseq2000 sequencing system (Illumina) according to the manufacturer’s protocols. Bcl-files were converted and demultiplexed to fastq with bcl2fastq (Illumina).
The fastq sequencing files were mapped to the human reference genome (hg38) using the STAR aligner[58] with default parameters apart from setting the alignIntronMax flag to 1 for end-to-end mapping. Quality control of the sequenced material was performed by FastQC tool using MultiQC v.0.9dev0 (Babraham Institute, Cambridge, U.K.). Peak calling was performed using the default parameters. Peaks were identified for enrichment of the immunoprecipitation fraction against input (adjusted p < 10^−5) and annotated by HOMER software[59] in standard mode to closest transcription start site (TSS). Peaks with overlapping localization by at least 1 nucleotide in several samples were merged and further on referred to as one peak. […]

[2] = test system: gene expression in CD4+ cells; experiment: RNA-seq after YM155 treatment; format: cell-based, human
Experimental: as §1
RNA from the CD4^+ cell cultures was prepared using the Norgen Total micro mRNA kit (Norgen, Ontario, Canada). Quality control was done by Bioanalyzer RNA6000 Pico on Agilent2100 (Agilent, Santa Clara, CA, USA). Deep sequencing was done by RNAseq (Hiseq2000, Illumina) at the Science for Life Laboratory, Huddinge, Sweden. Raw sequence data were obtained in Bcl-files and converted into fastq text format using the bcl2fastq program from Illumina.
Mapping of transcripts was done using Genome UCSC annotation set for hg38 human genome assembly. Analysis was performed using the core Bioconductor packages in R-studio v.3.6.3. Differentially expressed genes in CD4^+ cells treated with YM155 were identified using DESeq2 (v.1.26.0) with Benjamini-Hochberg adjustment for multiple testing.
Supplementary file mmc2.xlsx: Table S1. Differentially expressed protein coding genes connected to the changeable H3K27me3 peaks in CD4^+ T cells, related to Figure 1 CD4^+ T cells (n=4) were cultured with survivin inhibitor YM155 (0 and 10 ng/ml). Expression was analyzed by RNA-seq and compared by paired DESeq2 test.

survivin transcription = test system: survivin transcription; set-up: method as in PMID 17804712; conditions: cited from earlier work
[3] = test system: XIAP, cIAP2, Bcl-XL, Bcl-2, Bad, p53, cIAP1, STAT3; set-up: method as in 2 sources, ref 22 = [22]; PMID 17804712; doi:10.1158/0008-5472.CAN-07-1343; 22 Nakahara T. Kita A. Yamanaka K. Mori M. Amino N. Takeuchi M. Tominaga F. Hatakeyama S. Kinoyama I. Matsuhisa A. YM155, a novel small-molecule survivin suppressant, induces regression of established ||| ref 23 = [23]; PMID 18927289; doi:10.1158/1078-0432.CCR-08-0468; 23 Iwasa T. Okamoto I. Suzuki M. Nakahara T. Yamanaka K. Hatashita E. Yamada Y. Fukuoka M. Ono K. Nakagawa K. Radiosensitizing effect of YM155, a novel small-molecule survivin suppressant, in non-smal; conditions: cited from earlier work

In the case of `COCCn1c2c([n+](Cc3cnccn3)c1C)C(=O)c1ccccc1C2=O` [YM155, sepantronium bromide], the “H3K27 acetylation after survivin inhibition (in words)” value ([1]; CD4+ T cells, YM155 10 ng/ml, 24 h) was “virtually unaffected”, the “proportion of H3K27me3 peaks with increased H3K27me3 deposition” value ([1]; CD4+ T cells, YM155 10 ng/ml, 24 h, ConA/LPS stimulated) was 85% and the “increase in tag counts, middle H3K27me3 peak (first)” value ([1]; HOX-B cluster, chromosome 17) was 51%. For the same compound, the “increase in tag counts, middle H3K27me3 peak (second)” value ([1]; HOX-B cluster, chromosome 17) was 69%, the “number of H3K27me3 peaks that increased the count by 30%” value ([1]; YM155-treated CD4+ cell cultures) was 7413 and the “caudal HOX-B gene expression (in words)” value ([2]; HOX-B8, -B9, and -B13, YM155, CD4+ cells) was “a change of the HOX-B genes, which was clearly seen in the caudal HOX-B8, -B9, and -B13 genes”. The “number of genes downregulated (of 157)” value ([2]; genes connected to changed H3K27me3 peaks, YM155-treated CD4+ cells) was 100, the “number of protein-coding genes with significantly changed mRNA levels” value ([2]; genes connected to regulatory elements at changed H3K27me3 peaks, nominal p < 0.01, YM155-treated CD4+ cells) was 157 and the “effect on survivin transcription (in words)” value (survivin transcription) was “specifically inhibits survivin transcription”. For the same compound, the “effect on expression of XIAP, cIAP2, Bcl-XL, Bcl-2, Bad (in words)” value [3] was “does not change the expression” and the “effect on expression of p53, cIAP1, STAT3 (in words)” value [3] was “does not change the expression”.
